Earlier results, collected in patent US6727104B2, “Microcolumn chromatographic immunoassays” (The Board of Regents of the University of Nebraska, priority 2001, dated 2004).
Where two headings read alike, the source gives them in different places.

Key:
[1] = target: Thyroxine-Binding Prealbumin (Homo sapiens, UniProt P02766)
[2] = target: T1, Thyroxine-Binding Globulin (Homo sapiens, UniProt P05543); conditions: T4 Binding Site
T1 sequence (P05543 21-415): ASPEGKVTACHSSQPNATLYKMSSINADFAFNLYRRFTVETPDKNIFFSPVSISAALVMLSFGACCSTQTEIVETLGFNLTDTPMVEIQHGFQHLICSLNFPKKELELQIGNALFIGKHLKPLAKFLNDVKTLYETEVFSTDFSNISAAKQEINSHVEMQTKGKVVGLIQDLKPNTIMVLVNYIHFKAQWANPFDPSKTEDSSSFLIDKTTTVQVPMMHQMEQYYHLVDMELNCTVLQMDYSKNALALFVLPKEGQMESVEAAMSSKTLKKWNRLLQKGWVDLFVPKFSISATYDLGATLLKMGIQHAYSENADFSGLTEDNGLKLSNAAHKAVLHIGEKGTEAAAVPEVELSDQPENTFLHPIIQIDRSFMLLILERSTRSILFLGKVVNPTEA

Ka ([1]; High Affinity Site): 1e+07 M⁻¹
Ka ([1]; Low Affinity Site): 300000 M⁻¹
Ka [2]: 1e+10 M⁻¹
Compound: N[C@@H](Cc1cc(I)c(Oc2cc(I)c(O)c(I)c2)c(I)c1)C(=O)O [T4, L-Thyroxine]
